Activity calls are given as the source filed them.
How the values were obtained:
[1] = LGR2 antagonists, dose response, cell-based, HEK293, CRE-luciferase reporter, cherry pick, set 2 (AID 743343); format: functional;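 note: transfected cells were stimulated with diluted bursicon conditioned medium after compound addition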
[2] = target: Nucleotide-binding oligomerization domain-containing protein 2 (Homo sapiens, UniProt Q9HC29); assay: NOD2 signaling inhibitors, cell-based, luminescence, uHTS, HEK293 (AID 1566); format: functional
HEK293 [3] = assay: cells; format: functional, cell-based; details: Homo sapiens
HEK293 [4] = assay: cells; format: functional, cell-based; details: Homo sapiens; remark: listed apart in the source
HEK293 [5] = assay: NOD1 signaling inhibitors, primary screen, cell-based, luminescence, uHTS (AID 1578); format: functional; details: Homo sapiens
[6] = MC4R antagonists, dose response, counter-screen for LGR2 antagonist project, cell-based, plate reader, cherry pick (AID 743444); format: functional;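 note: transfected HEK 293 cells stimulated with alpha-MSH peptide; potency of inhibitors of the alpha-MSH evoked signal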
HEK293 [7] = assay: NOD2 signaling inhibitors in MDP-stimulated cells, cell-based, uHTS, luminescence (AID 2001); format: functional; details: Homo sapiens
H4 = assay: Inhibitors of Prion Protein 5' UTR mRNA Measured in Cell-Based System Using Plate Reader - 2078-01_Inhibitor_Dose_DryPowder_Activity. [Related pubchem assays (depositor defined):AID488894]; format: functional; details: Homo sapiens
HEK293 [8] = assay: cells; format: functional, cell-based; details: Homo sapiens; remark: listed apart in the source
[9] = target: T1, Small ubiquitin-related modifier 1 (Homo sapiens, UniProt P63165); assay: inhibitors of SUMO1 partner interactions, dose response, biochemical, FRET (AID 624383); format: functional; details: read-out: IC50_Mean
[10] = target: Beta-adrenergic receptor kinase 1 (Homo sapiens, UniProt P25098); assay: aptamer displacement from bead-bound GRK2 – biochemical, cherry pick 1, bead flow cytometry, dose response (AID 504500)
[11] = target: T1, Small ubiquitin-related modifier 1; assay: inhibitors of SUMO1 peptide binding, dose response, biochemical, fluorescence polarization, uHTS hits (AID 624382); format: functional; details: read-out: IC50_Mean
[12] = target: Induced myeloid leukemia cell differentiation protein Mcl-1 (Homo sapiens, UniProt Q07820); format: functional
Genome polyprotein = Genome polyprotein (dengue virus type 2, UniProt P29990); assay: Dengue-2 NS5 methyltransferase inhibitors, primary screen, biochemical, confirmation dose response (AID 588689); format: functional
ORF 73 = ORF 73 (Human herpesvirus 8, UniProt O40947); assay: inhibitors of C-LANA binding to LBS DNA, dose response, biochemical, fluorescence polarization, cherry-picked samples (AID 504725); design: species or system Human gammaherpesvirus 8;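 note: fluorescence polarization of a labeled DNA duplex reporting LANA DNA binding; potency is for inhibitors that block LANA binding to the DNA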
HeLa = assay: HeLa cell cytotoxicity, dose response, cytotoxicity control, 24 h, cherry-picked samples (AID 504726); format: functional, cell-based; details: Homo sapiens;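 note: potency for cytotoxicity as loss of luminescence signal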
[13] = target: Glutathione-S-transferase (Schistosoma japonicum, UniProt Q26513); assay: biotin-GST/anti-GST TR-FRET signal inhibitors, dose response, artefact control for Vif-APOBEC3G degradation inhibitor project, biochemical (AID 1117362); format: functional
[14] = HEK293 cell cytotoxicity, dose response, cytotoxicity control, plate reader, cherry-picked samples (AID 743446); format: functional, cell-based
[15] = inhibitors of SNCA 5'UTR-driven reporter translation, confirmation, H4 neuroglioma cells, luminescence (AID 1988); format: functional, cell-based
[16] = A549 cell cytotoxicity, dose response, cytotoxicity control, plate reader, cherry-pick, antagonist series (AID 743412); format: functional, cell-based
[17] = target: Luciferin 4-monooxygenase (Photuris pensylvanica, UniProt Q27757); assay: firefly luciferase enzyme inhibitors, dose response, counter-screen for HSF-1 reporter inhibitor project, biochemical, Cell Titer Glo, luminescence, cherry-picks (AID 588847)
[18] = HepG2 cell cytotoxicity, dose response, cytotoxicity control, plate reader, cherry-pick, antagonist series (AID 743416); format: functional, cell-based
[19] = target: T2, Polyadenylate-binding protein 1 (Homo sapiens, UniProt P11940); assay: PABP1 MLLE–PAM2 binding inhibitor potency, dose response, biochemical, fluorescence polarization, FITC-PAM2 peptide (AID 602259); format: functional; details: read-out: IC50_Mean
[20] = target: FAD-linked sulfhydryl oxidase ALR (Homo sapiens, UniProt P55789); assay: inhibitors of human ALR sulfhydryl oxidase, dose response, biochemical, H2O2 detection, luminescence, cherry-pick (AID 493248)
[21] = target: T3, Rac GTPase-activating protein 1 (Homo sapiens, UniProt Q9H0H5); assay: MgcRacGAP GTPase-activating activity inhibitors, confirmation, biochemical, ADP Hunter fluorescence, primary and confirmatory (AID 624330); format: functional
T3 sequence (Q9H0H5 whole entry): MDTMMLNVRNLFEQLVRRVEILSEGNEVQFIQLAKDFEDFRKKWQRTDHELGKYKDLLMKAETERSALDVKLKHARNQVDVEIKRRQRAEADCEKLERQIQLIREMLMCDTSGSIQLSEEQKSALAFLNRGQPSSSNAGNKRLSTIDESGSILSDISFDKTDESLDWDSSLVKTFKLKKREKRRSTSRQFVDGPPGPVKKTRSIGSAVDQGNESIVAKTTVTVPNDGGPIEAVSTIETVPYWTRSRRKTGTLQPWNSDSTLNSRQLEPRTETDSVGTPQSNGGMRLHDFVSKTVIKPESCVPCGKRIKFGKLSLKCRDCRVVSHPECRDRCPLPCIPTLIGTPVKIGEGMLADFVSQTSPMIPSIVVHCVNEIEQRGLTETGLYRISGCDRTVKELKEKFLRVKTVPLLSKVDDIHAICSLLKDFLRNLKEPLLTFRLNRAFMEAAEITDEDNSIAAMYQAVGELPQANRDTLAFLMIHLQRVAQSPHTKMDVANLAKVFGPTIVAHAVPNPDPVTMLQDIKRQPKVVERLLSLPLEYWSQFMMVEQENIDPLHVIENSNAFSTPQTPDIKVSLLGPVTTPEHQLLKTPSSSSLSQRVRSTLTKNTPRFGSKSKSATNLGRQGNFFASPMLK

[22] = target: Dual specificity tyrosine-phosphorylation-regulated kinase 1A (Rattus norvegicus, UniProt Q63470); format: biochemical, Homo sapiens
[23] = target: T4, Zinc finger protein mex-5 (Caenorhabditis elegans, UniProt Q9XUB2); assay: MEX-5/TCR-2 RNA interaction inhibitors, dose response, biochemical, C. elegans, fluorescence polarization (AID 1960)
T4 sequence (Q9XUB2 whole entry): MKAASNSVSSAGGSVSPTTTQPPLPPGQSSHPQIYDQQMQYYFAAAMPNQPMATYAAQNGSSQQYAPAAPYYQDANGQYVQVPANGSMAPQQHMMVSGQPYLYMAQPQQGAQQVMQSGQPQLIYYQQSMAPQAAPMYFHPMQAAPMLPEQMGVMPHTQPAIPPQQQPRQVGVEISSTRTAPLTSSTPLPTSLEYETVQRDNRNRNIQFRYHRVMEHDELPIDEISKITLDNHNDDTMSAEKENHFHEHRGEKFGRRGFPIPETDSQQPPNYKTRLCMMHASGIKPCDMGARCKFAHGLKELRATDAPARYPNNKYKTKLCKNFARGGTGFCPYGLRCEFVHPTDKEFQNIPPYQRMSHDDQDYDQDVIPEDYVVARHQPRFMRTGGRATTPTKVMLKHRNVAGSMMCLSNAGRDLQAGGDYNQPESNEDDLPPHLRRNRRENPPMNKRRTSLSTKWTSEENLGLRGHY

Major prion protein = Major prion protein (Homo sapiens, UniProt P04156); format: functional, cell-based
[24] = target: T5, RNA-binding protein pos-1 (Caenorhabditis elegans, UniProt G5EF15); assay: inhibitors of POS-1/mex-3 RNA binding, dose response, biochemical, fluorescence polarization (AID 1964);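 note: purified POS-1 fused to maltose binding protein made in E. coli; potency of compounds blocking POS-1 binding to fluorescent RNA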
T5 sequence (G5EF15 whole entry): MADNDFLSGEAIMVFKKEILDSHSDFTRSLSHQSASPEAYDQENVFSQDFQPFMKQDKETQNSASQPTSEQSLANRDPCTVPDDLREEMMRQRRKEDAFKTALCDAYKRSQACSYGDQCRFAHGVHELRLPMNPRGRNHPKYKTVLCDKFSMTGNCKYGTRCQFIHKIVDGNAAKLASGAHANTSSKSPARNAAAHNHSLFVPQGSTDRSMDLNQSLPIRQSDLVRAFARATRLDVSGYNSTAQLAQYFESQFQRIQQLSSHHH

[25] = target: T6, Corticotropin-releasing factor receptor 2/Corticotropin-releasing factor-binding protein (Homo sapiens, UniProt P24387+Q13324); assay: activators of CRF receptor 2 with binding protein – uHTS hits, confirmation (AID 602473); format: functional; details: read-out: EC50_Mean
T6 sequence (Q13324 whole entry): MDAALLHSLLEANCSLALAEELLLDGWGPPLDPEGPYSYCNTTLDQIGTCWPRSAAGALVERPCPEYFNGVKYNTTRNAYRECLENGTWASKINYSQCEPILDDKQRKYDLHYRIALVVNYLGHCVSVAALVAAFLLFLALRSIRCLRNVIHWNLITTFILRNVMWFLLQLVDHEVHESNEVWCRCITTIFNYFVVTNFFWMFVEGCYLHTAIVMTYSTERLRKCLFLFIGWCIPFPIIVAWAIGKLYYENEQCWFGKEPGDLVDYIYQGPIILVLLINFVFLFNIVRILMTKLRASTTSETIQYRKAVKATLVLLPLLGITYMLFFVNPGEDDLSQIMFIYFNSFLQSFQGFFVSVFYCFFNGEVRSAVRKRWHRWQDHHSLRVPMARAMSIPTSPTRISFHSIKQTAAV
T6 sequence (P24387 whole entry): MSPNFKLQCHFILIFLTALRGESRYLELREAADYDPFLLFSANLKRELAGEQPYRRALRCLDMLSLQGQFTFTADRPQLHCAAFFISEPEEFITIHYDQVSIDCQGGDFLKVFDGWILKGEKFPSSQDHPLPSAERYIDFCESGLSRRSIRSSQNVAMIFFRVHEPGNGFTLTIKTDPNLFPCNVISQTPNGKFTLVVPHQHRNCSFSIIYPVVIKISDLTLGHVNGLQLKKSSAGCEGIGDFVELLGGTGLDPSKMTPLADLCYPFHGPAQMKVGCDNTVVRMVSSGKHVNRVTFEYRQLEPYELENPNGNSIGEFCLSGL

[26] = target: T6, Corticotropin-releasing factor receptor 2/Corticotropin-releasing factor-binding protein; assay: Dose Response confirmation of uHTS hits for small molecule antagonists of the CRF-binding protein and CRF-R2 receptor complex.; format: functional; details: read-out: IC50_Mean
[27] = target: T2, Polyadenylate-binding protein 1; assay: PABP1 MLLE–PAM2 interaction inhibitors, dose response, miRNA deadenylation inhibitor project, biochemical, fluorescence polarization, Cy5-PAM2 peptide, secondary (AID 602260); format: functional; details: read-out: IC50_Mean
[28] = target: Type-1 angiotensin II receptor (Homo sapiens, UniProt P30556); assay: AT1 receptor antagonists, dose response, selectivity assay for APJ receptor antagonist project, cell-based, uHTS hits (AID 463214); format: functional;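 note: antagonist potency against angiotensin II stimulated AT1 response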
Beta-galactosidase = Beta-galactosidase (Escherichia coli, UniProt Q8VNN2); assay: PubChem AID 485352; format: functional
INS1 = assay: protection from cytokine-induced mitochondrial depolarization, dose response, cell-based, INS-1E, JC-1 fluorescence ratio, dry powder (AID 488931); format: functional; details: Rattus norvegicus
[29] = target: Voltage-gated inwardly rectifying potassium channel KCNH2 (Homo sapiens, UniProt Q12809); details: Potency;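 note: confirmatory quantitative high-throughput screen measuring inhibition of hERG channel activity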
Cytochrome P450 3A4 = Cytochrome P450 3A4 (Homo sapiens, UniProt P08684); details: Potency;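 note: confirmatory qHTS run detecting inhibitors and substrates of CYP3A4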

COc1cc(NC(=O)c2cccs2)c(C(=O)OCC(=O)c2cc(C)n(-c3ccccc3)c2C)cc1OC
AC50 [1]: 9.95 µM (active) | EC50 [2]: 7.27 µM (active) | IC50 (HEK293 [3]): 1.19 µM (active) | IC50 (HEK293 [4]): > 20 µM (inactive) | EC50 (HEK293 [5]): > 20 µM (inactive) | AC50 [6]: 3.07 µM (active) | IC50 (HEK293 [7]): > 20 µM (inactive) | AC50 (H4): 2.17 µM (active) | IC50 (HEK293 [8]): > 20 µM (inactive)

O=C(O)c1cccc2c1NC(C(=O)O)C1CC(Sc3ccccc3[N+](=O)[O-])C(Cl)C21 (centres undefined)
IC50 [9]: 5.21 µM (active) | EC50 [10]: 19.4 µM (inactive) | IC50 [11]: > 66.6 µM (inactive) | IC50 [12]: 2.17 µM (active) | IC50 (Genome polyprotein): 38.9 µM (active) | AC50 (ORF 73): 59.6 µM (active) | AC50 (HeLa): 179 µM (active) | IC50 [13]: > 100 µM (active)

N#CCCCC#Cc1ccc2c(c1)COc1c3ccccc3nn1-2
AC50 [1]: 6.24 µM (active) | AC50 [14]: > 52 µM (inactive) | AC50 [6]: 7.77 µM (active) | EC50 [15]: 10.1 µM (inconclusive) | AC50 [16]: > 52 µM (inactive) | AC50 [17]: 1.76 µM (active) | AC50 [18]: > 52 µM (inactive)

S=c1[nH]c2ccccc2n2c(=S)[nH]nc12
IC50 [19]: > 66 µM (inactive) | AC50 [20]: 2.35 µM (active) | IC50 [21]: 56.5 µM (active) | AC50 [22]: 8 µM (active) | EC50 [23]: 6.1 µM (active) | IC50 (Major prion protein): > 1.7 µM (active) | EC50 [24]: 10.3 µM (inconclusive) | EC50 [25]: > 53 µM (inactive) | IC50 [26]: > 47.1 µM (inactive) | IC50 [27]: > 66 µM (inactive)

Cc1cc(C(=O)NNc2ccc(C)c(C)c2)no1
IC50 [28]: 8.58 µM (active) | EC50 (Beta-galactosidase): > 40 µM (inactive)

COc1ccc(S(=O)(=O)N(C)C[C@@H]2Oc3c(NC(=O)Nc4c(C)noc4C)cccc3C(=O)N([C@@H](C)CO)C[C@H]2C)cc1
AC50 (INS1): 28 µM (active)

CCOP(=S)(OCC)SCCSCC [DISULFOTON]
AC50 [29]: 1 µM (inconclusive) | AC50 (Cytochrome P450 3A4): 20 µM (inconclusive)

Reference: ChEMBL document CHEMBL1201862, “PubChem BioAssay data set” (2004)
